Reference: US20260176320A1, “MODULATORS OF G-PROTEIN COUPLED RECEPTORS” (priority 2018, published 2026)
Like-named read-outs stand apart in the source and are kept apart here.

Columns and labels:
GLP-1R [1] = target: T1, GLP-1R (Homo sapiens, UniProt P43220); experiment: HitHunter cAMP assay (GLP-1R); format: cell-based; conditions: cAMP; for Emax: read-out: (Emax) GLP-1R; for EC50: read-out: EC50 GLP-1R/nM
In short: (§1)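 Suspension cells expressing each receptor (10,000 per well) in HBSS with 10 mM HEPES, 625 μM IBMX and 0.2% BSA were treated with a 22-point 2-fold agonist series in duplicate for 30 minutes at room temperature. cAMP was detected by antibody immunocompetition with luminescence read after overnight incubation.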

GLP-1R [2] = target: T1, GLP-1R; experiment: PathHunter β-arrestin assay; format: cell-based; conditions: PathHunter β-arrestin assay; read-out: β-arrestin activity EC50
In short: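 Cells seeded overnight, then medium replaced with medium containing 0.2% BSA; agonists added as 22-point 2-fold DMSO dilution series in duplicate and incubated 90 min at 37 °C, 5% CO2. After addition of detection solution, plates sat 3 h at room temperature in the dark; luminescence read.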

GIP-R = target: T2, GIP-R (Homo sapiens, UniProt P48546); experiment: HitHunter cAMP assay (GIP-R); format: cell-based; conditions: cAMP; for Emax: read-out: (Emax) GIP-R; for EC50: read-out: EC50 GIP-R/nM
T2 sequence (P48546 22-466): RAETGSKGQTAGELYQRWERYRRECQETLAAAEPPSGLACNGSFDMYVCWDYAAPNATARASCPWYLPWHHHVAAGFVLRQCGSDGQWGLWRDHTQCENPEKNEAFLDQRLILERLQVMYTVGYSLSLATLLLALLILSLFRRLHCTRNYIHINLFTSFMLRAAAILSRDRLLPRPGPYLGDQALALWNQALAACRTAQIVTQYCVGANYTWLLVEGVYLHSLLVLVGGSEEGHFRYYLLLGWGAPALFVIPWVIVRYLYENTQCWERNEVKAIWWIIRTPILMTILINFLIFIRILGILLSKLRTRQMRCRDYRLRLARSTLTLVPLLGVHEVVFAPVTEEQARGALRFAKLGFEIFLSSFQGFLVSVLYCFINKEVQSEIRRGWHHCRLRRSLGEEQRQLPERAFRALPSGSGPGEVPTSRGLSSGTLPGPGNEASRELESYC
In short: as §1

mice = experiment: Glucose tolerance test (GTT); format: in vivo, mouse; conditions: 24 h GTT, s.c., dose range 2-5 nmol/kg, percent of vehicle
Method: Freestyle Lite glucometer and strips; compounds to be tested; sterilized glucose solution 200 mg/ml.
Compounds were diluted in PBS from the 1 mM DMSO stocks right before injection. Body weight and baseline blood glucose level for each mouse were measured. Tails were snipped using sterile scissors; blood from tails was used to measure glucose. For 0.25 h GTT, mice were fasted for 5-6 h and injected with compound subcutaneously 15 mins before glucose injection. For 4 h GTT, mice were fasted O/N for 16 h and injected with compound subcutaneously 4 h before glucose injection. For 16 h GTT, mice were injected with compound subcutaneously 16 h before glucose injection; food was removed at the same time. For 24 h GTT, mice were injected with compound subcutaneously 24 h before glucose injection; food was removed 5-6 h before glucose injection. 20% glucose in water was prepared; the solution was sterilized by 0.2 μm-filtration. An intraperitoneal injection of glucose (2 g/kg) was given to the mouse. Continued to take blood samples from the tail. Blood glucose was measured at 10, 20, 30, 40, 60, 90, and 120 minutes after glucose injection. Between each of these time points, the mouse was returned to its cage and monitored (at least 6 replicate mice were used for each time-point). The average glucose measurements were plotted as a function of time and the area under the curve (AUC) was determined.

T1 sequence (P43220 24-463): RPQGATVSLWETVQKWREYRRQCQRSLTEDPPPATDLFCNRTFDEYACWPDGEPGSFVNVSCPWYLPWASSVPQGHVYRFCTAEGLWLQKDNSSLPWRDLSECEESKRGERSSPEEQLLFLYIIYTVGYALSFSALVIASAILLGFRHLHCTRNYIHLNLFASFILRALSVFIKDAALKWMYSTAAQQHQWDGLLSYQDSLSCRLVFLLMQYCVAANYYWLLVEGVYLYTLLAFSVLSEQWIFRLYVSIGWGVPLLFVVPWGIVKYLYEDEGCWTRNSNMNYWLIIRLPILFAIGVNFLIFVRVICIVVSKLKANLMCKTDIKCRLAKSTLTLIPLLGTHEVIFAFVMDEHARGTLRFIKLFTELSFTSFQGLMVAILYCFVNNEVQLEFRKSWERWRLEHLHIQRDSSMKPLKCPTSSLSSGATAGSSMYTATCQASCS

SMILES | Emax (GLP-1R [1]; Table 3A) | EC50 (GLP-1R [1]; Table 3A) | EC50 (GLP-1R [2]) | Emax (GIP-R; Table 3A) | EC50 (GIP-R; Table 3A) | AUC score (mice) | Emax (GLP-1R [1]; Table 3) | EC50 (GLP-1R [1]; Table 3) | Emax (GIP-R; Table 3) | EC50 (GIP-R; Table 3)
CCCCCCCCCCCCCCCC(=O)N[C@@H](CCC(=O)NCCCC[C@H](NC(=O)[C@H](CO)NC(=O)[C@@H]1CCCN1C(=O)[C@@H]1CCCN1C(=O)[C@@H]1CCCN1C(=O)[C@H](C)NC(=O)CNC(=O)[C@H](CO)NC(=O)[C@H](CO)NC(=O)[C@@H]1CCCN1C(=O)CNC(=O)CNC(=O)[C@H](C)NC(=O)[C@H](CC(C)C)NC(=O)[C@H](CC(C)C)NC(=O)[C@H](Cc1c[nH]c2ccccc12)NC(=O)[C@H](CC(N)=O)NC(=O)[C@@H](NC(=O)[C@H](Cc1ccccc1)NC(=O)[C@H](CCC(=O)O)NC(=O)C(C)(C)NC(=O)[C@H](C)NC(=O)[C@H](C)NC(=O)[C@H](CCC(N)=O)NC(=O)[C@H](CCCCN)NC(=O)[C@H](CC(=O)O)NC(=O)[C@H](CC(C)C)NC(=O)[C@H](Cc1ccc(O)cc1)NC(=O)[C@@H](NC(=O)[C@H](CO)NC(=O)[C@H](Cc1ccc(O)cc1)NC(=O)[C@H](CC(=O)O)NC(=O)[C@H](CO)NC(=O)[C@@H](NC(=O)[C@H](Cc1ccccc1)NC(=O)[C@@H](NC(=O)CNC(=O)[C@H](CCC(=O)O)NC(=O)CCNC(=O)CN1CCCCCC1=O)[C@@H](C)O)[C@@H](C)O)[C@@H](C)CC)C(C)C)C(N)=O)C(=O)O [Compound 266] | 100% | < 0.1 nM | < 10 nM | 70% | 1 to 10 nM | 2 (AUC score 2 = 26-50%) | – | – | – | –
CCCCCCCCCCCCCCCC(=O)N[C@@H](CCC(=O)NCCCC[C@H](NC(=O)[C@H](CO)NC(=O)[C@@H]1CCCN1C(=O)[C@@H]1CCCN1C(=O)[C@@H]1CCCN1C(=O)[C@H](C)NC(=O)CNC(=O)[C@H](CO)NC(=O)[C@H](CO)NC(=O)[C@@H]1CCCN1C(=O)CNC(=O)CNC(=O)[C@H](C)NC(=O)[C@H](CC(C)C)NC(=O)[C@H](CC(C)C)NC(=O)[C@H](Cc1c[nH]c2ccccc12)NC(=O)[C@H](CC(N)=O)NC(=O)[C@@H](NC(=O)[C@H](Cc1ccccc1)NC(=O)[C@H](CCC(=O)O)NC(=O)C(C)(C)NC(=O)[C@H](C)NC(=O)[C@H](C)NC(=O)[C@H](CCC(N)=O)NC(=O)[C@H](CCCCN)NC(=O)[C@H](CC(=O)O)NC(=O)[C@H](CC(C)C)NC(=O)[C@H](Cc1ccc(O)cc1)NC(=O)[C@@H](NC(=O)[C@H](CO)NC(=O)[C@H](Cc1ccc(O)cc1)NC(=O)[C@H](CC(=O)O)NC(=O)[C@H](CO)NC(=O)[C@@H](NC(=O)[C@H](Cc1ccccc1)NC(=O)[C@@H](NC(=O)CNC(=O)[C@H](CCC(=O)O)NC(=O)CNC(=O)CCN1CCCCC1=O)[C@@H](C)O)[C@@H](C)O)[C@@H](C)CC)C(C)C)C(N)=O)C(=O)O [Compound 1] | 97% | 0.1 to 1 nM | > 1000 nM | 23% | 10 to 100 nM | 3 (AUC score 3 = 51-75%) | 97% | 0.1 to 1 nM | 23% | 1 to 10 nM
CCCCCCCCCCCCCCCC(=O)N[C@@H](CCC(=O)NCCCC[C@H](NC(=O)[C@H](CO)NC(=O)[C@@H]1CCCN1C(=O)[C@@H]1CCCN1C(=O)[C@@H]1CCCN1C(=O)[C@H](C)NC(=O)CNC(=O)[C@H](CO)NC(=O)[C@H](CO)NC(=O)[C@@H]1CCCN1C(=O)CNC(=O)CNC(=O)[C@H](C)NC(=O)[C@H](CC(C)C)NC(=O)[C@H](CC(C)C)NC(=O)[C@H](Cc1c[nH]c2ccccc12)NC(=O)[C@H](CC(N)=O)NC(=O)[C@@H](NC(=O)[C@H](Cc1ccccc1)NC(=O)[C@H](CCC(=O)O)NC(=O)C(C)(C)NC(=O)[C@H](C)NC(=O)[C@H](C)NC(=O)[C@H](CCC(N)=O)NC(=O)[C@H](CCCCN)NC(=O)[C@H](CC(=O)O)NC(=O)[C@H](CC(C)C)NC(=O)[C@H](Cc1ccc(O)cc1)NC(=O)[C@@H](NC(=O)[C@H](CO)NC(=O)[C@H](Cc1ccc(O)cc1)NC(=O)[C@H](CC(=O)O)NC(=O)[C@H](CO)NC(=O)[C@@H](NC(=O)[C@H](Cc1ccccc1)NC(=O)[C@@H](NC(=O)CNC(=O)[C@H](CCC(=O)O)NC(=O)CCCNC(=O)CN1CCCCC1=O)[C@@H](C)O)[C@@H](C)O)[C@@H](C)CC)C(C)C)C(N)=O)C(=O)O [Compound 16] | 97% | < 0.1 nM | < 10 nM | 22% | 10 to 100 nM | 2 (AUC score 2 = 26-50%) | 97% | < 0.1 nM | 22% | 1 to 10 nM
CCCCCCCCCCCCCCCC(=O)N[C@@H](CCC(=O)NCCCC[C@H](NC(=O)[C@H](CO)NC(=O)[C@@H]1CCCN1C(=O)[C@@H]1CCCN1C(=O)[C@@H]1CCCN1C(=O)[C@H](C)NC(=O)CNC(=O)[C@H](CO)NC(=O)[C@H](CO)NC(=O)[C@@H]1CCCN1C(=O)CNC(=O)CNC(=O)[C@H](C)NC(=O)[C@H](CC(C)C)NC(=O)[C@H](CC(C)C)NC(=O)[C@H](Cc1c[nH]c2ccccc12)NC(=O)[C@H](CC(N)=O)NC(=O)[C@@H](NC(=O)[C@H](Cc1ccccc1)NC(=O)[C@H](CCC(=O)O)NC(=O)C(C)(C)NC(=O)[C@H](C)NC(=O)[C@H](C)NC(=O)[C@H](CCC(N)=O)NC(=O)[C@H](CCCCN)NC(=O)[C@H](CC(=O)O)NC(=O)[C@H](CC(C)C)NC(=O)[C@H](Cc1ccc(O)cc1)NC(=O)[C@@H](NC(=O)[C@H](CO)NC(=O)[C@H](Cc1ccc(O)cc1)NC(=O)[C@H](CC(=O)O)NC(=O)[C@H](CO)NC(=O)[C@@H](NC(=O)[C@H](Cc1ccccc1)NC(=O)[C@@H](NC(=O)CNC(=O)[C@H](CCC(=O)O)NC(=O)CSCC(=O)NCCN1C(=O)CSC1=O)[C@@H](C)O)[C@@H](C)O)[C@@H](C)CC)C(C)C)C(N)=O)C(=O)O [Compound 195] | 93 to 113% | 0.1 to 10 nM | > 1000 nM | 46 to 87% | 0.1 to 10 nM | 2 (AUC score 2 = 26-50%) | 93 to 113% | – | 46 to 87% | 0.1 to 10 nM
CCCCCCCCCCCCCCCC(=O)N[C@@H](CCC(=O)NCCCC[C@H](NC(=O)[C@H](CO)NC(=O)[C@@H]1CCCN1C(=O)[C@@H]1CCCN1C(=O)[C@@H]1CCCN1C(=O)[C@H](C)NC(=O)CNC(=O)[C@H](CO)NC(=O)[C@H](CO)NC(=O)[C@@H]1CCCN1C(=O)CNC(=O)CNC(=O)[C@H](C)NC(=O)[C@H](CC(C)C)NC(=O)[C@H](CC(C)C)NC(=O)[C@H](Cc1c[nH]c2ccccc12)NC(=O)[C@H](CC(N)=O)NC(=O)[C@@H](NC(=O)[C@H](Cc1ccccc1)NC(=O)[C@H](CCC(=O)O)NC(=O)C(C)(C)NC(=O)[C@H](C)NC(=O)[C@H](C)NC(=O)[C@H](CCC(N)=O)NC(=O)[C@H](CCCCN)NC(=O)[C@H](CC(=O)O)NC(=O)[C@H](CC(C)C)NC(=O)[C@H](Cc1ccc(O)cc1)NC(=O)[C@@H](NC(=O)[C@H](CO)NC(=O)[C@H](Cc1ccc(O)cc1)NC(=O)[C@H](CC(=O)O)NC(=O)[C@H](CO)NC(=O)[C@@H](NC(=O)[C@H](Cc1ccccc1)NC(=O)[C@@H](NC(=O)CNC(=O)[C@H](CCC(=O)O)NC(=O)CSCC(=O)NCCN1CC[C@H](O)C1=O)[C@@H](C)O)[C@@H](C)O)[C@@H](C)CC)C(C)C)C(N)=O)C(=O)O [Compound 66] | 113% | < 0.1 nM | > 1000 nM | 11% | 100 to 1000 nM | 2 (AUC score 2 = 26-50%) | 113% | < 0.1 nM | 11% | 1 to 10 nM
